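Following 48 hours of exposure in 96-well plates, responses at five concentrations were used to interpolate endpoints linearly. GI50: concentration for 50% inhibition of growth.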 Calls of active or inactive are those of the source. No stated cut-off is given here; in the data, active = GI50 up to about 1.1 µM and inactive = higher.

Holding throughout (assay): inhibition of tumour cell growth, NCI panel, 48 h
For assay [1], the system named is CCRF-CEM.
Assay [2] deals with OVCAR-8.
The subject of assay [3] is UACC-257.
In assay [4] the test system is MDA-MB-231.
Assay [5] relates to HCT-116.
Assay [6] deals with NCI-H226.
Assay [7] concerns SNB-19.
Assay [8] relates to SK-OV-3.
Assay [9] has as its system OVCAR-4.
For assay [10], the system named is MOLT-4.
Assay [11] deals with T47D.
Assay [12] has as its system OVCAR-3.
The subject of assay [13] is SW-620.
Assay [14] concerns ACHN.
In assay [15] the test system is SR.
Assay [16] deals with LOX IMVI.
Assay [17] relates to M14.
In assay [18] the test system is UACC-62.
Assay [19] relates to HOP-62.
Assay [20] has as its system Malme-3M.

Take `CC(C)(C)[Si](C)(C)OCC1OC(n2ccc(=O)[nH]c2=O)C(O[Si](C)(C)C(C)(C)C)/C1=N/O` (centres undefined): the GI50 in assay [1] is 3.29 µM (inactive); in [2], 3.33 µM (inactive); in assay [3], 4.17 µM (inactive); in assay [4], 12.4 µM (inactive); in assay [5] it was 2.45 µM (inactive); in [6] it was 2.82 µM (inactive). The GI50 in assay [7] was 4.49 µM (inactive); in assay [8] it was 6.41 µM (inactive); in assay [9], 4.25 µM (inactive); in assay [10], 2.43 µM (inactive); in [11], 6.22 µM (inactive); in [12], 8.67 µM (inactive). In addition, the GI50 is 4.38 µM (inactive) in [13]; 3.2 µM (inactive) in [14]; 2.71 µM (inactive) in [15]; 4.67 µM (inactive) in [16]; 3.33 µM (inactive) in assay [17]; 5.96 µM (inactive) in assay [18]. The GI50 in [19] is 4.63 µM (inactive).

For `CCOC(=O)c1c2c(n(Cc3ccccc3)c1C)C(=O)C(=O)c1ccccc1-2`, the GI50 in assay [1] is 0.134 µM (active); in [2], 0.237 µM (active); in assay [3], 0.0989 µM (active); in [4], 0.351 µM (active); in assay [5], 0.235 µM (active); in assay [6] it was 0.55 µM (active). Besides, the GI50 was 0.315 µM (active) in [7]; 0.61 µM (active) in [8]; 0.0794 µM (active) in assay [9]; 0.17 µM (active) in [10]; 0.0968 µM (active) in [20]; 0.579 µM (active) in assay [11]. Further, the GI50 was 0.0615 µM (active) in [12]; 0.18 µM (active) in assay [13]; 0.275 µM (active) in assay [14]; 0.174 µM (active) in assay [16]; 0.452 µM (active) in [17]; 0.284 µM (active) in assay [18]. In assay [19], the GI50 was 0.238 µM (active).

`COC(=O)c1cc2c(o1)Sc1ccccc1NC2=O`: the GI50 is > 100 µM (inactive) in assay [1]; 68.5 µM (inactive) in [2]; > 100 µM (inactive) in assay [3]; > 100 µM (inactive) in [4]; > 100 µM (inactive) in assay [5]; > 100 µM (inactive) in assay [6]. The GI50 in assay [7] is 35.9 µM (inactive); in assay [8], > 100 µM (inactive); in assay [9], > 100 µM (inactive); in [10] it was > 100 µM (inactive); in [11], > 100 µM (inactive); in assay [12] it was > 100 µM (inactive). The GI50 in [13] was > 100 µM (inactive); in [14], 27.1 µM (inactive); in [15], > 100 µM (inactive); in assay [16] it was > 100 µM (inactive); in assay [17] it was > 100 µM (inactive); in [18], > 100 µM (inactive). The GI50 in assay [19] is 52.1 µM (inactive).

As to `C/C(=N\Nc1nc2ccccc2o1)c1ccc2ccccc2n1`, the GI50 in assay [1] is 2.04 µM (inactive); in assay [2] it was 2.89 µM (inactive); in assay [3] it was 6.71 µM (inactive); in [4], 2.98 µM (inactive); in assay [5], 2.55 µM (inactive); in [7] it was 8.26 µM (inactive). Further, the GI50 is 23.1 µM (inactive) in [8]; 1.3 µM (inactive) in assay [9]; 1.97 µM (inactive) in assay [10]; 4.21 µM (inactive) in assay [20]; 0.279 µM (active) in [11]; 0.52 µM (active) in assay [12]. Also, the GI50 was 4.07 µM (inactive) in assay [13]; 1.47 µM (inactive) in assay [14]; 0.579 µM (active) in assay [15]; 2.86 µM (inactive) in assay [16]; 2.57 µM (inactive) in assay [17]; 3.8 µM (inactive) in assay [18]. The GI50 in assay [19] was 4.53 µM (inactive).

`CC(C)(C)c1ccc(O)c(C(c2ccc([N+](=O)[O-])cc2)c2cc(C(C)(C)C)ccc2O)c1`: the GI50 in assay [1] was 2.98 µM (inactive); in assay [2], 2.56 µM (inactive); in assay [3], 1.79 µM (inactive); in [4], 1.87 µM (inactive); in assay [5] it was 2.43 µM (inactive); in assay [6] it was 1.78 µM (inactive). Moreover, the GI50 in [7] was 2.41 µM (inactive); in assay [8], 2.11 µM (inactive); in assay [9] it was 1.85 µM (inactive); in [10], 2.07 µM (inactive); in [11] it was 2.65 µM (inactive); in assay [12] it was 1.79 µM (inactive). Also, the GI50 in assay [13] was 2.11 µM (inactive); in [14] it was 1.85 µM (inactive); in assay [15], 2.4 µM (inactive); in assay [17], 1.68 µM (inactive); in [18], 1.66 µM (inactive); in assay [19] it was 1.85 µM (inactive).

For the molecule `CN1C(=O)C(O)CC1c1ccc(C(F)(F)F)cc1` (centres undefined), the GI50 is > 100 µM (inactive) in assay [1]; > 100 µM (inactive) in assay [2]; 44.1 µM (inactive) in assay [3]; > 100 µM (inactive) in assay [4]; > 100 µM (inactive) in assay [5]; > 100 µM (inactive) in assay [6]. Also, the GI50 in assay [7], in assay [8], in [9], in assay [10], in assay [20] and in assay [11] was > 100 µM (inactive) in each case. Besides, the GI50 in assay [12], in assay [13], in [14], in [16], in [17] and in [18] was > 100 µM (inactive) throughout. Moreover, the GI50 in assay [19] was > 100 µM (inactive).

Consider `Oc1ccc(Cl)cc1-c1cc(-c2ccccc2)nc(S)n1`, for which the GI50 is > 100 µM (inactive) in assay [1]; > 100 µM (inactive) in assay [2]; > 100 µM (inactive) in assay [3]; 30.5 µM (inactive) in assay [4]; 28.8 µM (inactive) in [5]; > 100 µM (inactive) in assay [6]. Moreover, the GI50 in [7] was 42.9 µM (inactive); in [8] it was 29.5 µM (inactive); in assay [9], > 100 µM (inactive); in assay [10], > 100 µM (inactive); in assay [20], > 100 µM (inactive); in [11], > 100 µM (inactive). For the same molecule, the GI50 in [12] is > 100 µM (inactive); in [13], > 100 µM (inactive); in assay [14], 30.3 µM (inactive); in [16], > 100 µM (inactive); in assay [17] it was > 100 µM (inactive); in assay [19], 22.6 µM (inactive).

Take `O=C1CCC[C@H]2O[C@@H](COCc3ccccc3)C[C@@H]12`: the GI50 in assay [1], in assay [2], in [3], in assay [4], in assay [5] and in [6] was > 100 µM (inactive) in each case. Besides, the GI50 in assay [7], in [8], in assay [9], in assay [10], in assay [11] and in assay [12] was > 100 µM (inactive) throughout. In addition, the GI50 in [13], in assay [14], in [15], in [17], in assay [18] and in assay [19] was > 100 µM (inactive) in each case.

On to `O=c1[nH]nc(-c2ccccc2)n1/N=C/c1cccnc1`, for which the GI50 is 69.5 µM (inactive) in assay [1]; > 100 µM (inactive) in assay [2]; > 100 µM (inactive) in assay [3]; 48.8 µM (inactive) in [4]; 54.3 µM (inactive) in assay [5]; 57.9 µM (inactive) in [6]. Besides, the GI50 in assay [7] is > 100 µM (inactive); in [10], 64 µM (inactive); in assay [20], > 100 µM (inactive); in [11] it was 31.6 µM (inactive); in assay [12], > 100 µM (inactive); in assay [13], > 100 µM (inactive). Besides, the GI50 in assay [14] was 63.7 µM (inactive); in assay [15] it was 52.7 µM (inactive); in assay [16] it was > 100 µM (inactive); in [17], > 100 µM (inactive); in assay [19] it was > 100 µM (inactive).

As for `COc1cc2c(cc1OCCCNC(=O)c1cc3ccccc3[nH]1)N=C[C@@H]1CCCN1C2=O`, the GI50 is 0.193 µM (active) in assay [1]; 0.301 µM (active) in assay [2]; 0.448 µM (active) in assay [3]; 0.466 µM (active) in [4]; 0.24 µM (active) in [5]; 0.313 µM (active) in [6]. In addition, the GI50 was 0.445 µM (active) in assay [7]; 1.6 µM (inactive) in [8]; 0.403 µM (active) in [9]; 0.125 µM (active) in assay [10]; 0.229 µM (active) in [11]; 0.306 µM (active) in [12]. Further, the GI50 is 0.378 µM (active) in assay [13]; 0.347 µM (active) in assay [14]; 0.19 µM (active) in assay [15]; 0.421 µM (active) in assay [16]; 0.305 µM (active) in assay [17]; 0.234 µM (active) in [18]. For the same molecule, the GI50 in [19] was 0.326 µM (active).

On to `CC(C)(C)C1=CC(=CC=C2C=CN(CCCCCCCCCCCO)C=C2)C=C(C(C)(C)C)C1=O`, for which the GI50 in assay [1] was 0.652 µM (active); in [2], 1.31 µM (inactive); in [3] it was 1.87 µM (inactive); in [4], 1.63 µM (inactive); in [5], 0.951 µM (active); in assay [7], 1.58 µM (inactive). Besides, the GI50 in assay [8] is 2.16 µM (inactive); in assay [9] it was 1.76 µM (inactive); in assay [10] it was 1.32 µM (inactive); in assay [20], 1.46 µM (inactive); in assay [11] it was 0.498 µM (active); in assay [12], 1.01 µM (active). Further, the GI50 in [13] was 2.19 µM (inactive); in assay [14] it was 2.19 µM (inactive); in assay [15], 0.401 µM (active); in [16], 0.735 µM (active); in assay [17], 1.75 µM (inactive); in assay [18] it was 1.5 µM (inactive). Moreover, in [19], the GI50 was 1.74 µM (inactive).

For the origin of these results see ChEMBL document CHEMBL1201862, “PubChem BioAssay data set” (2004).
